Data published in publication PMC11062899, “De novo development of small cyclic peptides that are orally bioavailable” (Nature Chemical Biology, 2023).
“And” between values parts separate entries of the source, which are not always exact repeats. Equal values may be shown once.

Tests used:
porcine pancreatin = test: Peptide stability in simulated intestinal fluid (SIF); assay type: in vitro ADME; settings: after 8 h vs 0 h (TIC)
Outline: (§1)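 Peptide from a 1 mM DMSO stock was added to fluid pre-warmed at 37 °C. SGF was pH 1.2 NaCl with porcine pepsin (0.32 g per 100 ml), and SIF was pH 6.8 potassium phosphate with porcine pancreatin (1 g per 100 ml). Supernatant peptide was quantified by LC–MS, with residual expressed as T1/T0.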

[1] = as above; assay type: in vitro ADME, porcine; settings: simulated gi fluid; 8 h, 37 °C, pH 6.8; read-out: Proteolytic stability: SIF (8 h) % remaining
Outline: as §1

[2] = Metabolic stability in rat liver microsomes (RLMs); settings: rat, microsomes
porcine pepsin = molecular target: T1, porcine pepsin (Sus scrofa, UniProt P00791); test: Peptide stability in simulated gastric fluid (SGF); assay type: in vitro ADME
T1 construct: 0.32 g of porcine pepsin (Sigma-Aldrich, P7125) was dissolved under gentle agitation; purchased Sigma-Aldrich P7125
T1 sequence (P00791 60-385): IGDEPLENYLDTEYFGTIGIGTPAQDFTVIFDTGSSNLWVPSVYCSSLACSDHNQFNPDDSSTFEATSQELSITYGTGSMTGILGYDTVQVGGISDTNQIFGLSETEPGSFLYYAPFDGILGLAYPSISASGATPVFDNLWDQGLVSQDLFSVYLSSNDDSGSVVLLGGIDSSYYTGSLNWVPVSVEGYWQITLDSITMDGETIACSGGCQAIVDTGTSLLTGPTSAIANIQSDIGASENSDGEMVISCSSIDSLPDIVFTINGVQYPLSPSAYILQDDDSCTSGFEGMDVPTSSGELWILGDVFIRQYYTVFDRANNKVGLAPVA
Outline: as §1

[3] = Passive artificial membrane permeability (PAMPA)
human α-thrombin = human α-thrombin (Homo sapiens, UniProt P00734); test: Protease inhibition, Ki for human α-thrombin (fluorogenic substrate Z-Gly-Gly-Arg-AMC); assay type: biochemical; settings: replicates R1-R3
Outline: (§2)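 Inhibition was measured as AMC fluorescence from 50 μM substrate, monitored for 30 min at 25 °C, relative to a peptide-free control. Human and rat enzymes were present at 2 nM and 3 nM final, respectively, in 50 mM Tris-HCl pH 7.4, 150 mM NaCl, 10 mM MgCl2, 1 mM CaCl2. Ki derives from fitted IC50 via Cheng–Prusoff.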

rat α-thrombin = molecular target: T2, rat α-thrombin (Rattus norvegicus, UniProt P18292); test: Protease inhibition, Ki for rat α-thrombin (fluorogenic substrate Z-Gly-Gly-Arg-AMC); assay type: biochemical; settings: replicates R1-R3
T2 construct: rat α-thrombin (Molecular Innovations) were used at final concentrations of 2 nM and 3 nM; purchased Molecular Innovations
Outline: as §2

[4] = peptide 1.33E+02 uM, slope of proteolytic substrate cleavage over time

## O=C1NCCSCc2cccc(n2)CSC[C@H](NC(=O)c2ccc(Cl)s2)C(=O)N[C@@H](CO)C(=O)NCc2ccc1cc2 [compound 25]
Porcine pancreatin; average of R1-R3
  SIF stability, Residual peptide Average: 93.12
Porcine pancreatin; single replicates R1-R3
  SIF stability, Residual peptide: 102.84 and 84.15 and 92.36
[1]
  remaining at 8 h: 93 ± 9%
[2]; CL (ul/min/mg protein) R1, RLM CL, replicate R1
  microsomal CLint: 99.1 µL/min/mg
[2]; CL (ul/min/mg protein) R2, RLM CL, replicate R2
  microsomal CLint: 76.5 µL/min/mg
[2]; CL (ul/min/mg protein) R3, RLM CL, replicate R3
  microsomal CLint: 112 µL/min/mg
[2]; Half Life (min) R1, RLM metabolic stability, replicate R1, 0-60 min
  half-life: 14 min
[2]; Half Life (min) R2, RLM metabolic stability, replicate R2, 0-60 min
  half-life: 18.1 min
[2]; Half Life (min) R3, RLM metabolic stability, replicate R3, 0-60 min
  half-life: 12.4 min
[2]; Metabolic stability: Half life T1/2 (min), RLMs, mean and SD, three measurements
  half-life: 14.8 ± 2.4 min
[2]; Metabolic stability: RLM CL (ul/min/mg), RLMs, mean and SD, three measurements
  microsomal CLint: 96 ± 15 µL/min/mg
Porcine pepsin; after 8 h vs 0 h (TIC), average of R1-R3
  SGF stability, Residual peptide Average: 101.05
Porcine pepsin; after 8 h vs 0 h (TIC), single replicates R1-R3
  SGF stability, Residual peptide: 110.75 and 95.01 and 97.38
Porcine pepsin; simulated gi fluid, 8 h, 37 °C, pH 1.2, read-out: Proteolytic stability: SGF (8 h) % remaining
  remaining at 8 h: 101 ± 8%
[3]; 50 μM, 12–18 h, acceptor concentration relative to equilibrium
  PAMPA permeability: % permeability: 0.62 ± 0.14%
[3]; PAMPA, pH 7.4
  Papp at 50 μM: 0.0407 ×10⁻⁶ cm/s
[3]; PAMPA, average of R1-R3
  Permeability% Average: 0.6%
[3]; PAMPA, replicate R1, TIC of top well sample relative to sample at theoretical equilibrium
  Permeability% R1: 0.77%
[3]; PAMPA, replicate R3, TIC of top well sample relative to sample at theoretical equilibrium
  Permeability% R3: 0.57%
Human α-thrombin; peptide 1.02E-03 uM
  Human alpha thrombin inhibition, slope normalized to DMSO: 94.7 and 95.3 and 98.5
Human α-thrombin; peptide 1.04E+00 uM
  Human alpha thrombin inhibition, slope normalized to DMSO: 75.5 and 74.4 and 76.2
Human α-thrombin; peptide 1.27E-04 uM
  Human alpha thrombin inhibition, slope normalized to DMSO: 97.4 and 68.3 and 98.0
Human α-thrombin; peptide 1.30E-01 uM
  Human alpha thrombin inhibition, slope normalized to DMSO: 93.0 and 91.1 and 92.8
Human α-thrombin; [4]
  Human alpha thrombin inhibition, slope normalized to DMSO: 13.5 and 15.1 and 12.6
Human α-thrombin; peptide 1.63E-02 uM
  Human alpha thrombin inhibition, slope normalized to DMSO: 97.4 and 90.6 and 97.7
Human α-thrombin; peptide 1.67E+01 uM
  Human alpha thrombin inhibition, slope normalized to DMSO: 26.1 and 29.0 and 29.2
Human α-thrombin; peptide 2.03E-03 uM
  Human alpha thrombin inhibition, slope normalized to DMSO: 98.6 and 102.5 and 100.6
Human α-thrombin; peptide 2.08E+00 uM
  Human alpha thrombin inhibition, slope normalized to DMSO: 73.0 and 60.5 and 66.8
Human α-thrombin; peptide 2.54E-04 uM
  Human alpha thrombin inhibition, slope normalized to DMSO: 97.8 and 93.6 and 92.8
Human α-thrombin; peptide 2.60E-01 uM
  Human alpha thrombin inhibition, slope normalized to DMSO: 88.6 and 90.7 and 89.6
Human α-thrombin; peptide 3.18E-05 uM
  Human alpha thrombin inhibition, slope normalized to DMSO: 97.1 and 94.4 and 99.6
Human α-thrombin; peptide 3.26E-02 uM
  Human alpha thrombin inhibition, slope normalized to DMSO: 101.4 and 92.5 and 97.5
Human α-thrombin; peptide 3.33E+01 uM
  Human alpha thrombin inhibition, slope normalized to DMSO: 14.8 and 16.8 and 15.8
Human α-thrombin; peptide 4.07E-03 uM
  Human alpha thrombin inhibition, slope normalized to DMSO: 99.3 and 94.9 and 93.4
Human α-thrombin; peptide 4.17E+00 uM
  Human alpha thrombin inhibition, slope normalized to DMSO: 57.1 (2×) and 55.7
Human α-thrombin; peptide 5.09E-04 uM
  Human alpha thrombin inhibition, slope normalized to DMSO: 99.4 and 94.7 and 120.6
Human α-thrombin; peptide 5.21E-01 uM
  Human alpha thrombin inhibition, slope normalized to DMSO: 84.0 and 81.7 and 83.0
Human α-thrombin; peptide 6.36E-05 uM
  Human alpha thrombin inhibition, slope normalized to DMSO: 93.6 and 95.3 and 99.3
Human α-thrombin; peptide 6.51E-02 uM
  Human alpha thrombin inhibition, slope normalized to DMSO: 95.9 and 74.7 and 94.1
Human α-thrombin; peptide 6.67E+01 uM
  Human alpha thrombin inhibition, slope normalized to DMSO: 13.4 and 15.6 and 21.8
Human α-thrombin; peptide 8.14E-03 uM
  Human alpha thrombin inhibition, slope normalized to DMSO: 96.7 and 95.4 and 97.4
Human α-thrombin; peptide 8.33E+00 uM
  Human alpha thrombin inhibition, slope normalized to DMSO: 44.0 and 41.9 and 43.6
Rat α-thrombin; [4]
  Rat alpha thrombin inhibition, slope normalized to DMSO: 3.8 and 4.8 and 16.3
Rat α-thrombin; peptide 1.67E+01 uM
  Rat alpha thrombin inhibition, slope normalized to DMSO: 8.5 and 7.5 and 19.4
Rat α-thrombin; peptide 2.08E+00 uM
  Rat alpha thrombin inhibition, slope normalized to DMSO: 35.4 and 36.0 and 40.9
Rat α-thrombin; peptide 3.33E+01 uM
  Rat alpha thrombin inhibition, slope normalized to DMSO: 4.1 and 4.6 and 17.1
Rat α-thrombin; peptide 4.17E+00 uM
  Rat alpha thrombin inhibition, slope normalized to DMSO: 23.4 and 23.3 and 26.8
Rat α-thrombin; peptide 6.67E+01 uM
  Rat alpha thrombin inhibition, slope normalized to DMSO: 3.8 and 4.6 and 15.5
Rat α-thrombin; peptide 8.33E+00 uM
  Rat alpha thrombin inhibition, slope normalized to DMSO: 13.7 and 14.0 and 21.8
